19 compounds from ChEMBL document CHEMBL4831562, “Discovery of Imidazole-Based Inhibitors of Plasmodium falciparum cGMP-Dependent Protein Kinase” (ACS Med Chem Lett, 2021) can be followed below.

For one series, the target named is Cytochrome P450 3A4 (Homo sapiens, UniProt P08684). In words: Inhibition of human CYP3A4 using testosterone as a substrate by LC/MS/MS analysis. It is filed as ADME.
Series [1] in a line: Inhibition of Plasmodium falciparum PKG using FAM-labeled PKAtide or IP3R-derived peptide as a substrate preincubated for 15 mins followed by substrate addition and incubated for 60 mins by IMAP assay.
Series [2] in a line: Metabolic stability in human liver microsomes assessed as half life incubated for 60 mins in the presence of NADPH by LC-MS/MS analysis. It is filed as ADME, Microsome. Background: Liver microsomes are a subcellular fraction often used to study metabolism.
A short description of series [3]: Metabolic stability in mouse liver microsomes assessed as half life incubated for 60 mins in the presence of NADPH by LC-MS/MS analysis. It is filed as ADME, Microsome.
The nature of series [4]: Kinetic aqueous solubility of the compound at pH 7.4 measured after 1 hr by UV/LC-MS/MS analysis. It is filed as physicochemical. To be noted: buffer, read-out: Kinetic_solubility.
Another series addresses Cytochrome P450 2C9 (Homo sapiens, UniProt P11712). In words: Inhibition of human CYP2C9 using 7-methoxy-4(trifluoromethyl coumarin) as a substrate incubated for 15 mins by fluorescence based analysis. It is filed as ADME.
The next series concerns the target Cytochrome P450 2D6 (Homo sapiens, UniProt P10635). Description: Inhibition of human CYP2D6 using 3-[2-(N,N-diethylamino)ethyl]-7-methoxy-4-methyl coumarin as a substrate incubated for 45 mins by fluorescence based analysis. It is filed as ADME.
In series [5] the test system is Plasmodium berghei. Description: Antiplasmodial activity against luciferase expressing Plasmodium berghei sporozoites infected in HepG2 cells assessed as decrease in parasite infection at 2 uM incubated for 16 hrs followed by replacement with compound free medium and measured after 48 hrs post infection by IVIS spectrum in vivo imaging analysis relative to control. It is filed as functional. To be noted: read-out: INH.

For series [6], the system named is Plasmodium berghei. Description: Antiplasmodial activity against luciferase expressing Plasmodium berghei sporozoites infected in HepG2 cells assessed as decrease in parasite infection at 10 uM incubated for 16 hrs followed by replacement with compound free medium measured after 48 hrs post infection by IVIS spectrum in vivo imaging analysis relative to control. It is filed as functional. To be noted: read-out: INH.

The test system of series [7] is Plasmodium falciparum. In words: Antiplasmodial activity against asexual blood stage Plasmodium falciparum 3D7. In kind it is functional, organism-based.
The test system of series [8] is Plasmodium berghei. Description: Antiplasmodial activity against luciferase expressing Plasmodium berghei hepatic stage sporozoites infected in HepG2 cells assessed as decrease in parasite infection incubated for 16 hrs followed by replacement with compound free medium measured after 48 hrs post infection by IVIS spectrum in vivo imaging analysis. It is filed as functional, organism-based.

For series [9], the system named is Plasmodium cynomolgi. In words: Antiplasmodial activity against liver stage Plasmodium cynomolgi B infected in non-human primate hepatocytes assessed as inhibition of liver schizonts development incubated for 4 days from sporozoite addition by prophylactic assay. To be noted: Hepatocyte, 96 h. It is filed as functional, organism-based.
In series [10] the test system is Plasmodium cynomolgi. In words: Antiplasmodial activity against liver stage Plasmodium cynomolgi B infected in non-human primate hepatocytes assessed as inhibition of hypnozoite development incubated for 4 days from sporozoite addition by prophylactic assay. In kind it is functional, organism-based. To be noted: Hepatocyte, 96 h.
Series [11] relates to Plasmodium cynomolgi. In words: Antiplasmodial activity against liver stage Plasmodium cynomolgi B infected in non-human primate hepatocytes assessed as reduction in liver schizonts development incubated for 4 days starting on day 4 post-sporozoite inoculation by […] cure mode analysis. It is filed as functional, organism-based. To be noted: Hepatocyte, 96 h.
For series [12], the system named is Plasmodium cynomolgi. Description: Antiplasmodial activity against liver stage Plasmodium cynomolgi B infected in non-human primate hepatocytes assessed as reduction in liver hypnozoites development incubated for 4 days starting on day 4 post-sporozoite inoculation by […] cure mode analysis. To be noted: Hepatocyte, 96 h. In kind it is functional, organism-based.

A short description of series [13]: Toxicity against non-human primate hepatocytes infected with liver stage Plasmodium cynomolgi B incubated for 4 days from sporozoite addition. To be noted: primates, 96 h, time 4 day. In kind it is ADME, tissue-based, Hepatocyte.
A short description of series [14]: Toxicity against non-human primate hepatocytes infected with liver stage Plasmodium cynomolgi B incubated for 4 days starting on day 4 post-sporozoite inoculation. It is filed as ADME, tissue-based, Hepatocyte. To be noted: primates, 96 h, time 4 day.
Series [15] concerns Plasmodium falciparum. Description: Inhibition of Plasmodium falciparum PKG using FAM-labeled PKAtide or IP3R-derived peptide as a substrate at 1 uM preincubated for 15 mins followed by substrate addition and incubated for 60 mins by IMAP assay relative to control. To be noted: time 75.0 min.
The species named for a further series is Homo sapiens. Description: Inhibition of human PKG using FAM-labeled PKAtide or IP3R-derived peptide as a substrate at 10 uM preincubated for 15 mins followed by substrate addition and incubated for 60 mins by IMAP assay relative to control. To be noted: time 75.0 min.
Series [16] has as its system cGMP-dependent protein kinase (Plasmodium falciparum), W7JX98 [T618Q]. In words: Inhibition of Plasmodium falciparum PKG T618Q mutant using FAM-labeled PKAtide or IP3R-derived peptide as a substrate at 10 uM preincubated for 15 mins followed by substrate addition and incubated for 60 mins by IMAP assay relative to control. To be noted: time 75.0 min.
A short description of series [17]: Inhibition of Plasmodium falciparum PKG.

Structures are written as SMILES. ≈ marks a conversion by molar mass, not a printed value.

Cytochrome P450 2D6, sequence (P10635 whole entry): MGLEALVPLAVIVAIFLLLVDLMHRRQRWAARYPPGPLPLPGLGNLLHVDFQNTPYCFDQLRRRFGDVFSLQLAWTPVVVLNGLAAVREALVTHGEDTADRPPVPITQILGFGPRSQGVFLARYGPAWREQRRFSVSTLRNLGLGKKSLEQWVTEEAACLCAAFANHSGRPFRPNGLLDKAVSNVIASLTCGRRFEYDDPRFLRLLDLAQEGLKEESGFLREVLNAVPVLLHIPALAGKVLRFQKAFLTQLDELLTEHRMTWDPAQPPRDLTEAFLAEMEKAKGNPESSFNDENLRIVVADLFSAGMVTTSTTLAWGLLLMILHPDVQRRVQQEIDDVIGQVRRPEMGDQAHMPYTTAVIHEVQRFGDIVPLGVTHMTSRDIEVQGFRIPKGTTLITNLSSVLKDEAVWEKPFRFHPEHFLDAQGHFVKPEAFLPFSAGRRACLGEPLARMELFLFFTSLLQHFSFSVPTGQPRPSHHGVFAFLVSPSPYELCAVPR
Cytochrome P450 2C9, sequence (P11712 whole entry): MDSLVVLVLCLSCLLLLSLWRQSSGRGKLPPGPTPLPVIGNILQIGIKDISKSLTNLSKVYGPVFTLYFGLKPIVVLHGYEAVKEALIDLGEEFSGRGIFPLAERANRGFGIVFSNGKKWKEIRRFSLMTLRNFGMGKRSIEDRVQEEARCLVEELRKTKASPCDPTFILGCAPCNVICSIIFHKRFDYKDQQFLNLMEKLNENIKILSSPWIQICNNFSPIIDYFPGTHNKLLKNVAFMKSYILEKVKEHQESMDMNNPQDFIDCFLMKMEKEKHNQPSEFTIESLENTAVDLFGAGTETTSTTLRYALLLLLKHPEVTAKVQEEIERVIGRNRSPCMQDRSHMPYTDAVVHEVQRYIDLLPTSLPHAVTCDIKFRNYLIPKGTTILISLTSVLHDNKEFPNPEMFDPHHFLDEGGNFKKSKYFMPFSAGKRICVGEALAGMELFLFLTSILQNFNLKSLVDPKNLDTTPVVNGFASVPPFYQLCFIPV
Cytochrome P450 3A4, sequence (P08684 whole entry): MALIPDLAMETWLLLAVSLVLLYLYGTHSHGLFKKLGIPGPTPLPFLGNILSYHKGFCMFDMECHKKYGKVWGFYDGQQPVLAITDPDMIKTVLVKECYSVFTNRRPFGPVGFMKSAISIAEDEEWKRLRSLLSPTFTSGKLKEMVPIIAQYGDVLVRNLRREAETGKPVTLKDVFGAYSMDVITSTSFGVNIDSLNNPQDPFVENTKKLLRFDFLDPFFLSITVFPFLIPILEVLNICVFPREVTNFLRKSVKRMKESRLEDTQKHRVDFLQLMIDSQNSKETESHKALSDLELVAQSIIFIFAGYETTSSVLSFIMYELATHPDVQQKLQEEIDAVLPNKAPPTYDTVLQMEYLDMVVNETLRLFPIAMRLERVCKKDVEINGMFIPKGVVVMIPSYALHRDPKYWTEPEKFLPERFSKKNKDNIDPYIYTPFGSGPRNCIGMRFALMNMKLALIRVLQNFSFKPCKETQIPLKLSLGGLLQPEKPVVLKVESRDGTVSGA
cGMP-dependent protein kinase (Plasmodium falciparum), W7JX98 [T618Q], sequence (W7JX98 whole entry T618Q): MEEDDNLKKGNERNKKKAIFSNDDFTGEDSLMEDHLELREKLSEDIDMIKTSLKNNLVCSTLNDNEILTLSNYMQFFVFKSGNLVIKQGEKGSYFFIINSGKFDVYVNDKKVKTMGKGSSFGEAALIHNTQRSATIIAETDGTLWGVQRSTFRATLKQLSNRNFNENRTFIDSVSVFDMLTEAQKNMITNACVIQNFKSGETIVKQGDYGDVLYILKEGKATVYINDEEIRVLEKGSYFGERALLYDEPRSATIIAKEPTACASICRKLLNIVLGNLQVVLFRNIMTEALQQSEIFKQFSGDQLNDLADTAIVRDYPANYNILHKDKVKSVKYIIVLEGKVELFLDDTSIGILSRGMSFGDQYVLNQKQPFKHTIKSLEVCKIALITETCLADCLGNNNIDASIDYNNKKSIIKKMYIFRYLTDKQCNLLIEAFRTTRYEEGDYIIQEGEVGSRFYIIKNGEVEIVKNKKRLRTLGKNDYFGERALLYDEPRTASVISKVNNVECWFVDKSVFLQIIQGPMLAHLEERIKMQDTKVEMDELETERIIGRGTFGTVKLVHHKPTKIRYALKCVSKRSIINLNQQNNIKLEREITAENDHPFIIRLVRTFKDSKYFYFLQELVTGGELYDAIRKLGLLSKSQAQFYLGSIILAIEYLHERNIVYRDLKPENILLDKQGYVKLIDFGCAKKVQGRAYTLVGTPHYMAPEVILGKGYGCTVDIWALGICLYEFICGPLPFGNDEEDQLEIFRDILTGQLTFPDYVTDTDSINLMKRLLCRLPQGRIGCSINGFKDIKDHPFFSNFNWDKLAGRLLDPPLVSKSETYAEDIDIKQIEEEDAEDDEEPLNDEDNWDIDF

Take `O=C(c1nccs1)N1CC[C@@H](Nc2nccc(-n3cc(C4CC4)nc3-c3cccc(Cl)c3)n2)C1`: the IC50 (in general, the concentration at which inhibition is half-maximal) on Cytochrome P450 3A4 is 190 nM; in series [1], 60 nM; against Cytochrome P450 2C9 it was 2800 nM; against Cytochrome P450 2D6, more than 10000 nM; in the series on Plasmodium cynomolgi [9], 930 nM; in the series on Plasmodium cynomolgi [10], 9880 nM. Also, the values for the IC50 in the series on Plasmodium cynomolgi [11] and in the series with Plasmodium cynomolgi [12] were 4620 nM and more than 20000 nM, respectively. Also, the half-life (as a rule, how long it takes for the measured level to halve) was 3.7 min in [2] and less than 2 min in series [3]. For the same compound, the solubility kinetic at 1 h in series [4] came out at 28 µM (≈ 13.8 µg/mL). In the series on Plasmodium berghei [5], the percent decrease in parasite infection in HepG2 cells at 2 µM was 94%. Besides, in the series on Plasmodium berghei [6], the percent inhibition of parasite infection at 10 µM was found to be 93%. Besides, the EC50 – broadly, the concentration giving half of the maximal effect – with Plasmodium falciparum [7] was determined as 3300 nM; in the series with Plasmodium berghei [8], 5700 nM. Moreover, the Activity in series [13] and in series [14] was more than 20 µM throughout.
For the compound `CO[C@@H]1[C@@H](OC)[C@H](C)C(O)(CC(=O)O)O[C@H]1[C@H](C)[C@H]1O[C@@]2(CC[C@@](C)([C@H]3CC[C@@](C)([C@@H]4O[C@@H]([C@H]5OC(C)(O)[C@H](C)C[C@@H]5C)C[C@@H]4O[C@@H]4C[C@H](OC)[C@@H](OC)[C@H](C)O4)O3)O2)C[C@H](O)[C@H]1C` (stereo partly drawn), the IC50 in the series on Plasmodium cynomolgi [9] is 10 nM; with Plasmodium cynomolgi [10] it was 20 nM; in the series on Plasmodium cynomolgi [11] it was 30 nM; in the series on Plasmodium cynomolgi [12], 30 nM. The values for the Activity in series [13] and in series [14] were 5.78 µM and 11.91 µM, respectively.
`Cc1cn(-c2ccnc(NC3CCCN(C(=O)c4nccs4)C3)n2)c(-c2ccccc2)n1` (stereo not drawn): the inhibition – broadly, the change of the read-out against control, counted positive when it falls – in the series on Plasmodium falciparum [15] is 4%.
As to `COc1cccc(-c2nc(C)cn2-c2ccnc(N[C@@H]3CCN(C(=O)c4nccs4)C3)n2)c1`, the IC50 in series [1] was 86 nM.
In turn, `Cc1cn(-c2ccnc(N[C@H]3CCN(C(=O)c4nccs4)C3)n2)c(-c2ccccc2)n1` came in with an inhibition with Plasmodium falciparum [15] of 4%.
For `Cc1cn(-c2ccnc(N[C@@H]3CCN(C(=O)c4nccs4)C3)n2)c(-c2ccccc2)n1`, the IC50 in [1] was 320 nM; in the series with Plasmodium cynomolgi [9], 7910 nM; in the series on Plasmodium cynomolgi [10], more than 20000 nM; with Plasmodium cynomolgi [11], 11600 nM; in the series on Plasmodium cynomolgi [12] it was more than 20000 nM. Besides, the inhibition (in the series filed under Homo sapiens; in series [16]) was 3% in each case. Besides, the half-life in [2] and in [3] was less than 2 min throughout. Moreover, the solubility kinetic at 1 h in series [4] was 200 µM (≈ 86.3 µg/mL). In the series with Plasmodium berghei [5], the percent decrease in parasite infection in HepG2 cells at 2 µM worked out at 78%. Also, the percent inhibition of parasite infection at 10 µM with Plasmodium berghei [6] was determined as 89%. Further, the Activity in [13] and in [14] was more than 20 µM each time.
On to `Cc1cn(-c2ccnc(N[C@@H]3CCN(C(=O)c4nccs4)C3)n2)c(-c2ccc(Cl)cc2)n1`, for which, in series [1], the IC50 stood at 1160 nM.
For the compound `COc1cc(C)c2c(Oc3cccc(C(F)(F)F)c3)c(OC)cc(NC(C)CCCN)c2n1` (stereo not drawn) [TAFENOQUINE], the IC50 came to 190 nM with Plasmodium cynomolgi [9], 140 nM with Plasmodium cynomolgi [10], 3610 nM in the series with Plasmodium cynomolgi [11] and 3500 nM with Plasmodium cynomolgi [12]. Further, the Activity in series [13] stood at 13.82 µM; in series [14], 18.61 µM.
As to `Cc1cn(-c2ccnc(NCC3(NC(=O)c4nccs4)CC3)n2)c(-c2ccccc2)n1`, the inhibition with Plasmodium falciparum [15] was found to be 6%.
The same measure, in the same setting: under `Cc1cn(-c2ccnc(NCC3CCCN3C(=O)c3nccs3)n2)c(-c2ccccc2)n1` (stereo not drawn) stands 3%.
With `Cc1cn(-c2ccnc(N[C@@H]3CCN(C(=O)c4ccn(C)n4)C3)n2)c(-c2ccccc2)n1`, in series [1], half-maximal inhibition (IC50) required 1000 nM.
Same read-out and setting: the result for `Cc1cn(-c2ccnc(N[C@@H]3CCN(C(=O)c4nccs4)C3)n2)c(-c2cccc(OC(F)(F)F)c2)n1` reads 150 nM.
On to `O=C(c1nccs1)N1CC[C@@H](Nc2nccc(-n3cc(C4CC4)nc3-c3ccccc3)n2)C1`, for which the IC50 against Cytochrome P450 3A4 was 290 nM; in [1] it was 100 nM; on Cytochrome P450 2C9 it was more than 10000 nM; against Cytochrome P450 2D6, more than 10000 nM. Moreover, the half-life was 4.8 min in series [2] and less than 2 min in series [3]. Moreover, the solubility kinetic at 1 h in [4] worked out at 92 µM (≈ 42.1 µg/mL). Also, the figures for the EC50 with Plasmodium falciparum [7] and with Plasmodium berghei [8] were 7600 nM and 20000 nM, respectively.
On to `CCN(CC)Cc1onc(-c2cccc(Cl)c2)c1-c1ccnc(N[C@@H]2CCN(C(=O)c3ccon3)C2)n1`, for which the percent decrease in parasite infection in HepG2 cells at 2 µM in the series with Plasmodium berghei [5] was found to be 52%. The midpoint of inhibition in series [17], the IC50, lay at 13 nM.
Taken in the same sequence, the figures for `CCN(CC)Cc1onc(-c2cccc(Cl)c2)c1-c1ccnc(N[C@@H]2CCN(C(=O)c3ccsn3)C2)n1` were 0% and 17 nM.
Turning to `Cc1cn(-c2ccnc(N[C@@H]3CCN(C(=O)c4nccs4)C3)n2)c(-c2ccccc2Cl)n1`, in the series on Plasmodium falciparum [15], the inhibition is 47%.
Still for that read-out and setting: under `Cc1cn(-c2ccnc(NC3CCN(C(=O)c4nccs4)CC3)n2)c(-c2ccccc2)n1` stands 5%.
With `Cc1cn(-c2ccnc(NCC3CCN3C(=O)c3nccs3)n2)c(-c2ccccc2)n1` (stereo not drawn), in the series on Plasmodium falciparum [15], the inhibition turned out to be 2%.
In the case of `CN1CCC(c2cc(-c3ccc(F)cc3)c(-c3ccncc3)[nH]2)CC1`, the IC50 in [1] was 22 nM; in series [17], 20 nM. In the series on Plasmodium berghei [5], the percent decrease in parasite infection in HepG2 cells at 2 µM was 91%. Also, in the series on Plasmodium berghei [6], the percent inhibition of parasite infection at 10 µM is 94%. In addition, the EC50 in the series on Plasmodium falciparum [7] worked out at 150 nM; in the series with Plasmodium berghei [8], 300 nM.
